Test results reported in the supplement of paper PMC10307832.

How the values were obtained:
Test in all cases: relative viability (nuclei count vs DMSO), 5 days (fraction); higher = more cells survive
GSK-J4 + Dasatinib = compound: CCOC(=O)CCNc1cc(N2CCc3ccccc3CC2)nc(-c2ccccn2)n1 [GSK-J4] + Cc1nc(Nc2ncc(C(=O)Nc3c(C)cccc3Cl)s2)cc(N2CCN(CCO)CC2)n1 [Dasatinib] (partner 0.075 µM)
Procedure, shortened: (§1)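 Lung cancer cell lines were seeded in 1536-well plates and dosed by pin tool the next day, with either a single drug or a fixed anchor-drug dose combined with five library-drug doses (not always all listed) spaced in √10 steps. Five days later, one step fixed the cells and stained their nuclei (final 0.05% Triton X-100, 1% formaldehyde, 1 ug/ml Hoechst), and nuclei were counted on 4× images. Relative viability is the nuclei count in treated wells divided by the count in vehicle wells, and each value is the median of duplicate plates.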

AZ3146 + Olaparib = compound: CN1CCC(CC1)OC2=CC(=C(C=C2)NC3=NC=C4C(=N3)N(C(=O)N4C)C5CCCC5)OC [AZ3146] + O=C(c1cc(Cc2n[nH]c(=O)c3ccccc23)ccc1F)N1CCN(C(=O)C2CC2)CC1 [Olaparib] (partner 8 µM)
Procedure, shortened: as §1

GSK-J4 + Lapatinib = compound: CCOC(=O)CCNc1cc(N2CCc3ccccc3CC2)nc(-c2ccccn2)n1 [GSK-J4] + CS(=O)(=O)CCNCc1ccc(-c2ccc3ncnc(Nc4ccc(OCc5cccc(F)c5)c(Cl)c4)c3c2)o1 [Lapatinib] (partner 2 µM)
Procedure, shortened: as §1

AZ3146 + Crizotinib = compound: CN1CCC(CC1)OC2=CC(=C(C=C2)NC3=NC=C4C(=N3)N(C(=O)N4C)C5CCCC5)OC [AZ3146] + C[C@@H](Oc1cc(-c2cnn(C3CCNCC3)c2)cnc1N)c1c(Cl)ccc(F)c1Cl [Crizotinib] (partner 1 µM)
Procedure, shortened: as §1

Cell Line	relative viability (GSK-J4 + Dasatinib; first compound 0.5 µM)	relative viability (GSK-J4 + Dasatinib; first compound 1.581 µM)	relative viability (GSK-J4 + Dasatinib; first compound 15.81 µM)	relative viability (GSK-J4 + Dasatinib; first compound 50 µM)	relative viability (AZ3146 + Olaparib; first compound 0.08 µM)	relative viability (AZ3146 + Olaparib; first compound 0.253 µM)	relative viability (AZ3146 + Olaparib; first compound 0.8 µM)	relative viability (AZ3146 + Olaparib; first compound 2.53 µM)	relative viability (AZ3146 + Olaparib; first compound 8 µM)	relative viability (GSK-J4 + Lapatinib; first compound 0.5 µM)	relative viability (GSK-J4 + Lapatinib; first compound 1.581 µM)	relative viability (GSK-J4 + Lapatinib; first compound 15.81 µM)	relative viability (GSK-J4 + Lapatinib; first compound 50 µM)	relative viability (AZ3146 + Crizotinib; first compound 0.08 µM)	relative viability (AZ3146 + Crizotinib; first compound 0.253 µM)	relative viability (AZ3146 + Crizotinib; first compound 0.8 µM)	relative viability (AZ3146 + Crizotinib; first compound 2.53 µM)	relative viability (AZ3146 + Crizotinib; first compound 8 µM)	relative viability (GSK-J4 + Dasatinib; first compound 5 µM)	relative viability (GSK-J4 + Lapatinib; first compound 5 µM)
NCI-H2405	0.231	0.327	0.212	0.186	0.827	0.881	0.933	0.925	0.818	1.15	1.03	1.09	1.17	0.808	0.842	0.733	0.899	0.798		
NCI-H3122	0.826	0.722	0.864	0.789	0.582	0.611	0.543	0.615	0.645	0.966	0.989	0.964	0.911	0.294	0.299	0.274	0.305	0.27	0.788	1
PC-3 [JPC-3]	0.978	0.891	0.924	0.859	1.04		1.01	1.25	1.09	0.47	0.385	0.43	0.427	0.912	0.983	0.974	1.03	0.984	0.742	0.578
PC-14	0.252	0.271	0.285	0.255	0.286	0.319	0.259	0.225	0.0944	0.351	0.228	0.249	0.323	0.898	0.98	0.975	1	0.828	0.204	0.344
RERF-LC-KJ	0.68	0.774	0.708	0.371	0.94	0.833	0.902	0.852	0.462	0.843	0.802	0.788	0.734	0.794	0.864	0.816	0.864	0.66	0.695	0.749
SK-LU-1	0.176	0.161	0.199	0.179	0.452	0.496	0.414	0.445	0.441	0.758	0.776	0.616	0.585	1.1	1.11	1.03	0.985	0.471	0.127	0.668
SK-MES-1	0.392	0.348	0.24	0.358	0.779	0.759	0.718	0.784	0.654	0.452	0.495	0.392	0.421	0.936	1.03	0.97	1.12	1.05	0.334	0.459
SW 1573	0.326	0.42	0.362	0.246	0.569	0.507	0.575	0.374	0.227	1.05	1.05	0.865	1.02	0.758	0.843	0.892	0.891	0.531	0.348	0.728
UMC-11	0.43		0.392	0.231	0.396	0.405	0.36	0.326	0.279	1.07	0.465	1.06	0.808	0.569	0.636	0.461	0.177	0.136	0.43	0.611
